Literature values as cited in patent US8461086B2, “Microcapsule composition for inhibiting an ethylene response in plants, method for preparing microcapsules, and method using the microcapsule composition” (Lytone Enterprise, Inc., priority 2009, dated 2013).

Key:
[1] = test system: plants; conditions: applied to plants
[2] = test system: humans and livestock; conditions: within the effective concentration range

SMILES: CC1=CC1 [Example 1-MCP, 1-methylcyclopropene]
- effective dosages [1]: 0.1 to 1.0 ppm (vol/vol)
- harm to humans and livestock [2]: does no harm
